The text below walks through data of US20260286363A1, “COMPOSITIONS AND METHODS FOR DIAGNOSING, TREATING, AND PREVENTING LYSOSOMAL STORAGE DISEASES” (Wylder Nation Foundation, priority 2022, published 2026).

In series [1] the test system is cultured wt neurons. Put plainly: Cell viability MTT assay in cultured wt neurons. Type of series: cell-based, mouse. The settings on record: for neuronal death upon SM16:0 addition in the presence of acid and neutral sphingomyelinase inhibitors (MTT): wt neurons, SM16:0 plus desipramine or GW4869. As for the experimental part: Cell viability was evaluated using the MTT (methylthiazolyldiphenyltetrazoliumbromide, Sigma) assay. Briefly, 3×10^4 neurons were plated in 96-well plates coated with poly-L-lysine (0.1 mg/ml). At DIV14 1 mM MTT was added to the wells and incubated for 4 h. Then, the supernatant was discarded, and […] DMSO was added to the wells. The absorbance was measured at 570 nm using a microplate reader (FLUOstar Optima, BMG Labtech). Cells treated with DMSO were used as a control.
(In general: Tetrazolium dyes change colour on reduction, which living cells bring about.)

The test system of series [2] is wt neurons. Particulars: cultured neurons.
Description: To assess reactive oxygen species (ROS), cultured neurons were incubated for 20 min with dihydrorhodamine 123 (10 μM, DHR: Molecular Probes, Carlsbad, CA, USA). The fluorescence product of DHR, rhodamine-123, was detected at excitation and emission wavelengths of 500 and 536 nm, respectively. Images of cultured neurons were captured on a confocal microscope (LSM710; Zeiss).
Since high levels of SM also can induce oxidative stress, reactive oxygen species (ROS) was evaluated by dihydrorhodamine 123 (DHR) staining in wt neurons incubated with the different SM species.
In series [3] the target is T1, ASM (Mus musculus, UniProt Q04519).
T1 sequence (Q04519 45-627): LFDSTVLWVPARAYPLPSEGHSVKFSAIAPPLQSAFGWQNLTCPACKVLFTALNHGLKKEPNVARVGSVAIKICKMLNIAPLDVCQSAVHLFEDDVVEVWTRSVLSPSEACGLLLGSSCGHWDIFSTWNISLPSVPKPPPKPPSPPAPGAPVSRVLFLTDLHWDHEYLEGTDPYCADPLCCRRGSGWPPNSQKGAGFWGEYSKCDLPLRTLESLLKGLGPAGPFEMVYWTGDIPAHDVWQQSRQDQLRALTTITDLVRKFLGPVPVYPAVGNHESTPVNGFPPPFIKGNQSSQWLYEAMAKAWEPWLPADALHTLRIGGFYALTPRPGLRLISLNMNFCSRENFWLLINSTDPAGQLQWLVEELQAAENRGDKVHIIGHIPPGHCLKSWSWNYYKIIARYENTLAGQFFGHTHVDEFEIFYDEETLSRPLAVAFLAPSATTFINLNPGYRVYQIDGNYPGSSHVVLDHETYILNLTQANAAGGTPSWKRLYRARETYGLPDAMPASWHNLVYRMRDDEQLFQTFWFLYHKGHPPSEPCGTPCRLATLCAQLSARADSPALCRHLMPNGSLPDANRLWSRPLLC
As to the kind of experiment: Enzymatic assay of SMb or SM16:0 metabolized by ASM activity. Type of series: biochemical. Particulars: fluorescence per nmol metabolized, slope analysis. As for the experimental part: SM levels were measured according to protocols modified from (Hojati and Jiang, 2006). Lipid extracts were dried in the presence of Thesit, and SM was converted into peroxide by incubation with sphingomyelinase (Smase C from Merck; #S9396 or ASM from Sino Biological; #50749-M08B), alkaline phosphatase, and choline oxidase. Peroxide was measured fluorimetrically in the presence of peroxidase and homovanillic acid (Van Veldhoven et al., 1997).

Series [4] deals with cultured wt neurons. Put plainly: LAMP1 surface staining in non-permeabilized neurons (lysosomal exocytosis). It counts as cell-based, mouse. The protocol:
ASMko and wt cultured neurons at 14DIV were washed with PBS and fixed with 2% PFA in PBS and 0.12 M sucrose for 8 min. Immunofluorescence was performed using a conventional protocol in the absence of detergent to avoid cell permeabilization.

Series [5] concerns wt primary cultured neurons. The settings on record: not told.
Description: Lysotracker Red DND99 (Thermo Fisher Scientific) was added to wt primary cultured neurons at 1 μM and incubated for 20 min at 37° C. Cells were then fixed in 4% PFA and mounted using Prolong Gold Antifade (Invitrogen). Images were taken on a confocal LSM710 microscope (Zeiss).
To investigate the effect of the different SM species in these organelles, several lysosomal-related parameters were measured. To analyze lysosomal permeabilization, the lysotracker red dye, which fluoresces in acidic environments was utilized.
In series [6] the test system is Cortical neurons from wt mice. As to the kind of experiment: LC/MS quantification of SM in cultured wt neurons incubated with SM species. It counts as cell-based, mouse. Particulars: for increase of total SM levels: wt cortical neurons cultured 48 hr with 40 μM; for relative abundance of the added SM species, of the total SM: wt cortical neurons, 48 hr, 40 μM. As for the experimental part:
Sample analysis was performed in an Acquity ultraperformance liquid chromatography (UPLC) system (Waters, USA) connected to a time-of-flight (TOF; LCT Premier XE) detector controlled with Waters/Micromass MassLynx software.
A study was done to determine the impact of the different increments of individual SM species in ASMko mice and cells on their specific accumulation in neurons. Cortical neurons from wt mice were cultured for 48 hr with 40 μM of either total SM from bovine brain (SMb, containing similar SM species proportions than total SM from mouse brain); or individual SM16:0; SM18:0 or SM24:1. […] LC/MS quantification assessed the effect of each treatment on the relative abundance of the added SM species. Incubation with SM16:0 and SM18:0 drastically raised the relative abundance of each of these species to 88% and 82% of the total (FIG. 2B). Incubation with SM24:1 increased the prevalence of this species to 30%, while addition of SMb reduced the relative abundance of SM18:0 and SM16:0 by 4% and 15%, respectively, while increased that of SM24:1 by 8% (FIG. 2B).

Series [7] concerns cultured wt neurons. As to the kind of experiment: pSM16:0 co-localization with subcellular markers (Mander's coefficient). It counts as cell-based, mouse. As for the experimental part: Cultured neurons at 14 DIV were fixed in 4% PFA 0.12M sucrose and incubated overnight with primary antibodies and subsequently for 1 h with Alexa 488- or Alexa 555-conjugated secondary antibodies. Images were taken using a confocal microscope LSM710 (Zeiss). The Mander's coefficient for pSM 16:0 co-localization with Thy1; PSD95; TOM20; EEA1; LAMP1; GM130 was determined by using the JACOP plugin. Mouse brains were dissected, fixed in 4% PFA 0.12M sucrose, and cryoprotected for 24 h in 30% sucrose phosphate buffer saline. The tissue was then frozen in Tissue-Tek optimal cutting temperature compound (Sakura Finetek, Torrance, CA, USA), and 40-μm sagittal sections were obtained with a cryostat (CM 1950 Ag Protect freezing: Leica, Solms, Germany). The sections were incubated overnight at 4° C. with the primary antibodies and then with the corresponding Alexa-conjugated secondary antibodies. Finally, the sections were incubated for 10 min with DAPI (Merck), washed, and mounted with ProLong Gold Antifade (Thermo Fisher). Images were obtained on a confocal LSM710 microscope (Zeiss) and quantified using the Fiji software.
Cultured neurons were treated with 40 μM propargyl SM (pSM 16:0) (Merck; #860711P) for 48 hours at DIV12. After immunofluorescence protocol, explained above, click reaction was performed for the attachment of fluorescent reporter (Sulfo-Cy3-Azide; Jena Biosciences; #CLK-AZ119-1) to pSM 16:0.
The surprising effects of SM16:0 on lysosomes compared to other SM species supported a hypothesis that this lipid targets these organelles. To explore this possibility, we took advantage of the existence of the analogue propargyl SM16:0 (pSM16:0), which is linked to an alkyne group and can be traced by click chemistry and fluorescence microscopy. We added pSM16:0 for 48 hours to cultured wt neurons and performed double immunofluorescence with markers of different cellular compartments.

Series [8] has as its system ASM knock-out mice. As to the kind of experiment: Lipidomic analysis of brain, liver and plasma of ASM knock-out mice after i.p. rhASM. Type of series: in vivo, mouse. The protocol: Mouse brain and liver samples were homogenized in water (1 g wet tissue/4 mL). SM was extracted from 50 μL of homogenate or 50 μL of plasma in the presence of SM (17:0) as internal standard using Bligh-Dyer lipid extraction (Bligh and Dyer, 1959). Sample analysis was performed in a Shimadzu 20AD HPLC system coupled to a 6500QTRAP+ mass spectrometer (AB Sciex, Framingham, MA) operated in positive multiple reaction monitoring mode. Data processing was conducted with Analyst 1.6.3 (AB Sciex). Data were reported as the peak area ratios of the analytes in sample to the internal standard.
To identify potential biomarkers of brain pathology in ASMD subjects a study was conducted in ASM knock-out mice. In brief, ASM knock-out mice received an i.p. injection of rhASM at 1 mg/kg every other day for 14 days. Results were compared to previous lipidomic analysis done on WT/ASMko mice at 2, 4, and 6 months.
Lipidomic analysis were completed on the brain, liver, and plasma of the treated mice. Analyzed lipids comprised: SM, LSM, SM OH, and m/z 805 (a phosphocholine compound). Total SM levels post i.p. rhASM injection are shown in FIG. 13A and below at Table 3.

Setting [9] is: 48 hours, wt neurons, Mander's coefficient.
Setting [10] is: Liver, i.p. 1 mg/kg every other day for 14 days.
The mark [11] stands for this setting: Plasma, i.p. 1 mg/kg every other day for 14 days.

Where two headings read alike, the source gives them in different places.

With `Cl.Cl.O=C(/C=C/c1ccc(/C=C/C(=O)Nc2ccc(C3=NCCN3)cc2)cc1)Nc1ccc(C2=NCCN2)cc1` [GW4869], the “neuronal death upon SM16:0 addition in the presence of acid and neutral sphingomyelinase inhibitors (MTT)” value in series [1] is listed as “not prevented”.

On to `CCCCCCCCCCCCC/C=C/[C@@H](O)[C@@H](N)COP(=O)([O-])OCC[N+](C)(C)C` [LysoSM, lyso-sphingomyelin], for which, in series [1] (addition to cultured neurons), the “deleterious effects on cultured neurons (MTT viability)” value is on record as “did not find deleterious effects”.

Turning to `CCCCCCCCCCCCC/C=C/[C@@H](O)[C@H](COP(=O)([O-])OCC[N+](C)(C)C)NC(=O)CCCCCCCCCCCCCCC` [SM16:0, sphingomyelin 16:0], in series [2], the “elevation in ROS levels (DHR staining)” value was found to be 1.6 fold. Also, the “substrate preference of ASM (SM16:0 vs SMb)” value in series [3] was “ASM has a preference to degrade SM16:0”. Also, the “lysosomal exocytosis (surface staining of LAMP1)” value in series [4] is recorded as “induced lysosomal exocytosis”. Moreover, the “reduction of neuronal survival / cell death (MTT)” value in series [1] (mouse, cultured neurons) was 50%. In addition, in series [1], the “neuronal death upon SM16:0 addition in the presence of acid and neutral sphingomyelinase inhibitors (MTT)” value is “induces cell death”. The “lysosomal permeabilization (change of Lysotracker staining from dotty to diffuse cytosolic pattern)” value in series [5] is recorded as “indicative of lysosomal permeabilization”. Moreover, in series [6], the “increase of total SM levels” value was determined as 6.6 fold and the “relative abundance of the added SM species, of the total SM” value (“relative abundance” for short) is reported as 88%. In addition, the “accumulation in lysosomes (pSM16:0 colocalization with Lamp1)” value in series [7] (wt neurons treated with ASM inhibitor desipramine) is “accumulates in lysosomes”.

In the case of `CCCCCCCCCCCCC/C=C/[C@@H](O)[C@H](COP(=O)([O-])OCC[N+](C)(C)C)NC(=O)CCCCCCCCCCCCCCCCC` [SM18:0, sphingomyelin 18:0], the “reduction of neuronal survival / cell death (MTT)” value in series [1] (mouse, cultured neurons) stood at 25%. Also, in series [6], the “increase of total SM levels” value came to 3.5 fold and the “relative abundance” value stood at 82%.

On to propargyl SM16:0 [pSM16:0], for which, in series [7] (setting [9]), the “co-localization with early endosome marker EEA1” value was “low degree of co-localization”, the “co-localization with mitochondrial marker TOM20” value is reported as “low degree of co-localization”, the “co-localization with plasma membrane marker Thy-1” value is recorded as “low degree of co-localization” and the “co-localization with synaptic marker PSD95” value is reported as “low degree of co-localization”. In addition, in series [7] (setting [9]), the “colocalization with Golgi apparatus marker GM130” value is listed as “high colocalization” and the “colocalization with endolysosomal marker LAMP1” value is recorded as “high colocalization”.

Regarding sphingomyelin 24:1 [SM24:1], in series [1], the “reduction of neuronal survival / cell death (MTT)” value was “no deleterious effects”. In series [6], the “increase of total SM levels” value is given as “not significant” and the “relative abundance” value came to 30%.

B1: rhASM: recombinant human acid sphingomyelinase (protein, UniProt P17405 47-631, looked up)
Sphingomyelin …: LALSDSRVLWAPAEAHPLSPQGHPARLHRIVPRLRDVFGWGNLTCPICKGLFTAINLGLKKEPNVARVGSVAIKLCNLLKIAPPAVCQSIVHLFEDDMVEVWRRSVLSPSEACGLLLGSTCGHWDIFSSWNISLPTVPKPPPKPPSPPAPGAPVSRILFLTDLHWDHDYLEGTDPDCADPLCCRRGSGLPPASRPGAGYWGEYSKCDLPLRTLESLLSGLGPAGPFDMVYWTGDIPAHDVWHQTRQDQLRALTTVTALVRKFLGPVPVYPAVGNHESTPVNSFPPPFIEGNHSSRWLYEAMAKAWEPWLPAEALRTLRIGGFYALSPYPGLRLISLNMNFCSRENFWLLINSTDPAGQLQWLVGELQAAEDRGDKVHIIGHIPPGHCLKSWSWNYYRIVARYENTLAAQFFGHTHVDEFEVFYDEETLSRPLAVAFLAPSATTYIGLNPGYRVYQIDGNYSGSSHVVLDHETYILNLTQANIPGAIPHWQLLYRARETYGLPNTLPTAWHNLVYRMRGDMQLFQTFWFLYHKGHPPSEPCGTPCRLATLCAQLSARADSPALCRHLMPDGSLPEAQSLWPRPLFC
As for B1, the “SM 16:0 level decrease after i.p. rhASM injection” value in series [8] (Brain) is given as “does not change”; in series [8] (Liver), 15%; in series [8] (Plasma), 35%. For the same molecule, the “Total LSM levels, % Decrease with rhASM injection” value in series [8] (Brain, i.p. 1 mg/kg every other day for 14 days) is reported as “does not change”; in series [8] (setting [11]), 70%. In addition, the results for the “Total SM levels, % Decrease with rhASM injection” value in series [8] (setting [10]) and in series [8] (setting [11]) were 22% and 31%, respectively. The “Total m/z 805 levels, % Decrease with rhASM injection” value in series [8] (setting [10]) is given as 70%. Further, in series [8] (brain, liver, plasma), the “SM OH levels after i.p. rhASM injection” value is given as “reduction in all samples tested”. Besides, the “m/z 805 levels after rhASM injections, across tissues” value in series [8] (brain, liver, plasma) was “decreases only in the liver”.
